Test results from US20060078570A1, “Use of asafetida extract as medicine for abstinence of drugs” (priority 2004, published 2006).
Counter-ions that a name gives are not always drawn.

Assays:
[1] = test system: subjects addicted to heroin for over 10 years; assay: Clinical trial (typical case): subjects addicted to heroin for over 10 years, asafetida injection intravenously; type: in vivo, human; details: 25 cases per group, heroin over 10 years, phenoxyimidazoline hydrochloride 0.1 mg tablet, thrice per day
[2] = test system: morphine-dependent rats; assay: Naloxone-promoted abstinence experiment in morphine-dependent rats (symptom scores and body weight decrease); type: in vivo, Wistar rat
[3] = test system: subjects addicted to drugs; assay: Clinical trial: abstinence treatment of subjects addicted to drugs, asafetida injection intramuscularly; type: in vivo, human; details: 20 cases per group, thrice per day, phenoxyimidazoline hydrochloride 0.1 mg tablet
Description: The typical performance of abstinence syndrome was as follows: yawning, lacrimation, perspiring, bad mood, anxiety, and dysphoria.
Apparently effective: the abstinence syndrome disappears completely and performance is normal.
Effective: the abstinence syndrome is obviously abated.
Ineffective: the abstinence syndrome has no obvious remission or no remission at all.
The subjects addicted to drugs were randomly grouped into asafetida injection treatment group, phenoxyimidazoline hydrochloride positive control group, placebo negative control group, wherein the phenoxyimidazoline hydrochloride is a relatively effective medicine for abstinence of drugs at present. The pharmaceuticals and usage thereof in each group were as follows:
Asafetida injection, 2 ml (equivalent to 1 g of original crude material)/bottle, thrice per day, a bottle per time, injected intramuscularly, for three consecutive days.
Phenoxyimidazoline hydrochloride, 0.1 mg/tablet, thrice per day, a tablet per time, for three consecutive days.
Placebo (physiological saline), 2 ml/bottle, thrice per day, a bottle per time, injected intramuscularly, for three consecutive days.

[4] = asafetida 5 ml i.v., three days
[5] = clonidine 0.1 mg/kg perfused, X ± S, n=10
[6] = three days, asafetida 2 ml i.m.

## Clc1cccc(Cl)c1N=C1NCCN1 [clonidine, phenoxyimidazoline hydrochloride]
[1]; [4]
  Apparently effective, %: 60.00%
  Effective, %: 40.00%
  Effective, Number of Cases: 10
  Ineffective, %: 0%
  Ineffective, Number of Cases: 0
  Total effective rate %: 100%
[1]; three consecutive days, asafetida injection 5 ml (2.5 g crude material) intravenously
  Apparently effective, Number of Cases: 15
[2]; clonidine 0.1 mg/kg perfused once a day, three times, 15 min after naloxone 4 mg/kg i.p., mean ± SD, n=10
  Scores of performance and autonomic nervous system symptoms of rats after naloxone administration: 2.22 ± 2.29
[2]; clonidine 0.1 mg/kg perfused, 30 min after naloxone
  Scores of performance and autonomic nervous system symptoms of rats after naloxone administration: 2.68 ± 1.81
[2]; clonidine 0.1 mg/kg perfused, 45 min after naloxone
  Scores of performance and autonomic nervous system symptoms of rats after naloxone administration: 1.21 ± 1.80
[2]; clonidine 0.1 mg/kg perfused, 60 min after naloxone
  Scores of performance and autonomic nervous system symptoms of rats after naloxone administration: 1.61 ± 1.54
[2]; clonidine 0.1 mg/kg perfused, 90 min after naloxone
  Scores of performance and autonomic nervous system symptoms of rats after naloxone administration: 0.40 ± 0.68
[2]; clonidine 0.1 mg/kg perfused, 120 min after naloxone
  Scores of performance and autonomic nervous system symptoms of rats after naloxone administration: 0 ± 0
[2]; [5]
  body weight decreasing at 30 min after administrating naloxone: 4.077 ± 3.431 g
  body weight decreasing at 60 min after administrating naloxone: 5.560 ± 4.960 g
[3]; three consecutive days, asafetida injection 2 ml (1 g crude material) intramuscularly
  Apparently effective, Number of Cases: 13
[3]; [6]
  Apparently effective, %: 65.00%
  Effective, %: 35.00%
  Effective, Number of Cases: 7
  Ineffective, %: 0%
  Ineffective, Number of Cases: 0
  Total effective rate %: 100%
